Here are results for three compounds from patent US10597369B2, “Monosulfonic phenyltetrazole compounds with applications” (HANGZHOU JENNIFER BIOTECH CO., LTD., priority 2015, dated 2020).

SMILES strings stand for the structures. Where a name gives a salt, the structure may show the parent alone.

The nature of data set [1]: Reagent stability assays (stored tetrazolium detection reagent tested with NADH, response at 450 nm). Type of data set: physicochemical. The conditions noted are these: for lost activity: detection reagent after storage at 4° C. for a month, tested using 100 μM NADH in 50 mM Tris-Cl (pH 8); for changes in activity on storage: storage at −20° C. for up to a year, tested monthly in NADH titration. The procedure: The tetrazolium detection reagent (WST-8 or EZMTT) was stored at 4 and −20° C., respectively. Once a month, the stored tetrazolium detection reagent was tested using 100 μM NADH in 50 mM Tris-Cl (pH 8) and the response was measured at 450 nm.
For the stability test, the WST-8, EZMTT detection reagents were stored at 4° C. and −20° C. up to a year. Both reagents were tested in NADH titration every month for their activities.

Consider `COc1cc([N+](=O)[O-])ccc1-[n+]1nc(-c2ccc(S(=O)(=O)[O-])cc2S(=O)(=O)[O-])nn1-c1ccc([N+](=O)[O-])cc1.[Na+]` [WST-8, 2-(3-(2-methoxy-4-nitrophenyl)-2-(4-nitrophenyl)-2H-tetrazolium)benzene disulfonate sodium salt, reference compound], for which, in data set [1], the lost activity is on record as 60% and the “changes in activity on storage” value is given as “essentially no changes in activity”. For orientation: melting point means the temperature, or range, at which the solid turns liquid. As to `COc1cc([N+](=O)[O-])ccc1-[n+]1nc(-c2ccccc2S(=O)(=O)O)nn1-c1ccc([N+](=O)[O-])cc1` (as salt: sodium) [EZMTT, 2-(4-nitrophenyl)-3-(2-methoxy-4-nitrophenyl)-5 (2-sulfonic phenyl)-2H-tetrazolium monosodium salt], the melting point was 105 °C. In the case of `COc1cc([N+](=O)[O-])ccc1-[n+]1nc(-c2ccccc2S(=O)(=O)O)nn1-c1ccc([N+](=O)[O-])cc1` [EZMTT, 2-(4-nitrophenyl)-3-(2-methoxy-4-nitrophenyl)-5 (2-sulfonic phenyl)-2H-tetrazolium monosodium salt], in data set [1], the lost activity is 25% and the “changes in activity on storage” value is reported as “essentially no changes in activity”.
